Test results: patent publication US8349824B2, “Triazolopyridine compounds” (Hoffmann-La Roche Inc., priority 2010, dated 2013)

target: T1, human PDE10A full length (Homo sapiens, UniProt Q9Y233); assay: PDE10A Scintillation Proximity Assay (SPA), human PDE10A full length assay; format: biochemical; conditions: 50 nM cGMP + 50 nM [3H]-cGMP, 20 minutes at room temperature, read-out: PDE10A inhibition IC50
T1 construct: purchased Enzo Life Science, Lausen, Switzerland SE-534
Method: The following test was carried out in order to determine the activity of the compounds of the present invention. PDE10 activity of the compounds of the present invention was determined using a Scintillation Proximity Assay (SPA)-based method similar to the one previously described (Fawcett, L. et al., Proc Natl Acad Sci USA (2000) 97(7):3702-3707).
The human PDE10A full length assay was performed in 96-well micro titer plates. The reaction mixture of 50 μl contained 20 mM HEPES pH=7.5/10 mM MgCl2/0.05 mg/ml BSA (Sigma cat. #A-7906), 50 nM cGMP (Sigma, cat. #G6129) and 50 nM [^3H]-cGMP (GE Healthcare, cat. #TRK392 S.A. 13.2Ci/mmol), 3.75 ng/well PDE10A enzyme (Enzo Life Science, Lausen, Switzerland cat #SE-534) with or without a specific test compound. A range of concentrations of the potential inhibitor was used to generate data for calculating the concentration of inhibitor resulting in 50% of the effect (e.g. IC50, the concentration of the competitor inhibiting PDE10A activity by 50%). Non-specific activity was tested without the enzyme. The reaction was initiated by the addition of the substrate solution (cGMP and [^3H]-cGMP) and allowed to progress for 20 minutes at room temperature. The reaction was terminated by adding 25 μl of YSi-SPA scintillation beads (GE Healthcare, cat. #RPNQ0150) in 18 mM zinc sulphate solution (stop reagent). After 1 h under shaking, the plate was centrifuged one minute at 170 g to allow beads to settle. Afterwards, radioactive counts were measured on a Perkin Elmer TopCount Scintillation plate reader.

T1 sequence (Q9Y233 1-779 isoform Q9Y233-1): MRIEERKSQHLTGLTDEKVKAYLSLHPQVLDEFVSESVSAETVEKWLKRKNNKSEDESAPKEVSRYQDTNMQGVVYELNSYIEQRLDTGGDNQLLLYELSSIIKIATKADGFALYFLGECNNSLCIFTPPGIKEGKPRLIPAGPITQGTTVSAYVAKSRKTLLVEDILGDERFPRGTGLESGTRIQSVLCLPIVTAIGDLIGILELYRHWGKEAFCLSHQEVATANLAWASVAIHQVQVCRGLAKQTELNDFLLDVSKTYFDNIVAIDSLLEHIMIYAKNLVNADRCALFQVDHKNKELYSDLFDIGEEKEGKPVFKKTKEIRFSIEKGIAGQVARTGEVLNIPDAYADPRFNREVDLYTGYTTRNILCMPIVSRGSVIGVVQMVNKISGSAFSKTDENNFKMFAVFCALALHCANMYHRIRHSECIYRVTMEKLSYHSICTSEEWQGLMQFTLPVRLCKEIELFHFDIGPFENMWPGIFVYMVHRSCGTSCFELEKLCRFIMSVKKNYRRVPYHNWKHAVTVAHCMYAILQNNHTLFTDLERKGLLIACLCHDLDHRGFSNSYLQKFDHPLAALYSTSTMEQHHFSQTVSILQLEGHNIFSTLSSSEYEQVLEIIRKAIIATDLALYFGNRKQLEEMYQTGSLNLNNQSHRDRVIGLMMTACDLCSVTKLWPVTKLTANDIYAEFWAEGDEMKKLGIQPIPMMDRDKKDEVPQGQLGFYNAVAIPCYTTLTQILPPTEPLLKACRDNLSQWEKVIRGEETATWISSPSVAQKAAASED

| SMILES | IC50 |
| --- | --- |
| COCCN(C)C(=O)c1cnn(C)c1C(=O)Nc1ccn2nc(-c3cccc(OCF)c3)nc2c1 [Example 89, 2-Methyl-2H-pyrazole-3,4-dicarboxylic acid 3-{[2-(3-fluoromethoxy-phenyl)-[1,2,4]triazolo[1,5-a]pyridin-7-yl]-amide} 4-[(2-methoxy-ethyl)-methyl-amide]] | 0.59 nM |
| Cn1ncc(C(=O)N2CCC2)c1C(=O)Nc1ccn2nc(-c3cccc(OCCF)c3)nc2c1 [Example 90, 4-(Azetidine-1-carbonyl)-2-methyl-2H-pyrazole-3-carboxylic acid {2-[3-(2-fluoro-ethoxy)-phenyl]-[1,2,4]triazolo[1,5-a]pyridin-7-yl}-amide] | 1.02 nM |
| Cn1ncc(C(=O)N2CCC2)c1C(=O)Nc1ccn2nc(-c3cccc(OCF)c3)nc2c1 [Example 91, 4-(Azetidine-1-carbonyl)-2-methyl-2H-pyrazole-3-carboxylic acid [2-(3-fluoromethoxy-phenyl)-[1,2,4]triazolo[1,5-a]pyridin-7-yl]-amide] | 0.86 nM |
| CN(CCO)C(=O)c1cnn(C)c1C(=O)Nc1ccn2nc(-c3ccccc3)nc2c1 [Example 92, 2-Methyl-2H-pyrazole-3,4-dicarboxylic acid 4-[(2-hydroxy-ethyl)-methyl-amide]3-[(2-phenyl-[1,2,4]triazolo[1,5-a]pyridin-7-yl)-amide]] | 0.98 nM |
| COC(=O)CN(C)C(=O)c1cnn(C)c1C(=O)Nc1ccn2nc(-c3ccccc3)nc2c1 [Example 93, {Methyl-[1-methyl-5-(2-phenyl-[1,2,4]triazolo[1,5-a]pyridin-7-ylcarbamoyl)-1H-pyrazole-4-carbonyl]-amino}-acetic acid methyl ester] | 2.16 nM |
| CN(CCO)C(=O)c1cnn(C)c1C(=O)Nc1ccn2nc(N3CCOCC3)nc2c1 [Example 94, 2-Methyl-2H-pyrazole-3,4-dicarboxylic acid 4-[(2-hydroxy-ethyl)-methyl-amide]3-[(2-morpholin-4-yl-[1,2,4]triazolo[1,5-a]pyridin-7-yl)-amide]] | 20.4 nM |
| COC(=O)CN(C)C(=O)c1cnn(C)c1C(=O)Nc1ccn2nc(N3CCOCC3)nc2c1 [Example 95, {Methyl-[1-methyl-5-(2-morpholin-4-yl-[1,2,4]triazolo[1,5-a]pyridin-7-ylcarbamoyl)-1H-pyrazole-4-carbonyl]-amino}-acetic acid methyl ester] | 50.4 nM |
| Cn1ncc(C(=O)NCCF)c1C(=O)Nc1ccn2nc(-c3ccccc3)nc2c1 [Example 96, 2-Methyl-2H-pyrazole-3,4-dicarboxylic acid 4-[(2-fluoro-ethyl)-amide]3-[(2-phenyl[1,2,4]triazolo[1,5-a]pyridin-7-yl)-amide]] | 2.12 nM |
| COc1ccccc1-c1nc2cc(NC(=O)c3c(C(=O)N(C)C)cnn3C)ccn2n1 [Example 97, 2-Methyl-2H-pyrazole-3,4-dicarboxylic acid 4-dimethylamide 3-{[2-(2-methoxy-phenyl)-[1,2,4]triazolo[1,5-a]pyridin-7-yl]-amide}] | 0.31 nM |
| CCN(C)C(=O)c1cnn(C)c1C(=O)Nc1ccn2nc(-c3ccccc3OC)nc2c1 [Example 98, 2-Methyl-2H-pyrazole-3,4-dicarboxylic acid 4-(ethyl-methyl-amide)3-{[2-(2-methoxy-phenyl)-[1,2,4]triazolo[1,5-a]pyridin-7-yl]-amide}] | 0.67 nM |
| COCCN(C)C(=O)c1cnn(C)c1C(=O)Nc1ccn2nc(-c3ccccc3OC)nc2c1 [Example 99, 2-Methyl-2H-pyrazole-3,4-dicarboxylic acid 4-[(2-methoxy-ethyl)-methyl-amide]3-{[2-(2-methoxy-phenyl)-[1,2,4]triazolo[1,5-a]pyridin-7-yl]-amide}] | 0.74 nM |
| CCN(C)C(=O)c1cnn(C)c1C(=O)Nc1ccn2nc(-c3ccccc3OCCF)nc2c1 [Example 101, 2-Methyl-2H-pyrazole-3,4-dicarboxylic acid 4-(ethyl-methyl-amide)3-({2-[2-(2-fluoro-ethoxy)-phenyl]-[1,2,4]triazolo[1,5-a]pyridin-7-yl}-amide)] | 0.65 nM |
| CN1CCN(C(=O)c2cnn(C)c2C(=O)Nc2ccn3nc(-c4cccc(F)c4)nc3c2)CC1 [Example 108, 2-Methyl-4-(4-methyl-piperazine-1-carbonyl)-2H-pyrazole-3-carboxylic acid [2-(3-fluoro-phenyl)-[1,2,4]triazolo[1,5-a]pyridin-7-yl]-amide] | 15.6 nM |
| Cn1ncc(C(=O)N2CCC2)c1C(=O)Nc1ccn2nc(-c3cccnc3F)nc2c1 [Example 110, 4-(Azetidine-1-carbonyl)-2-methyl-2H-pyrazole-3-carboxylic acid [2-(2-fluoro-pyridin-3-yl)-[1,2,4]triazolo[1,5-a]pyridin-7-yl]-amide] | 4.66 nM |
| Cn1ncc(C(=O)NC2CC2)c1C(=O)Nc1ccn2nc(N3CCOCC3)nc2c1 [Example 113, 2-Methyl-2H-pyrazole-3,4-dicarboxylic acid 4-cyclopropylamide 3-[(2-morpholin-4-yl-[1,2,4]triazolo[1,5-a]pyridin-7-yl)-amide]] | 19.1 nM |
| CN(CCF)c1nc2cc(NC(=O)c3c(C(=O)N4CCCC4)cnn3C)ccn2n1 [Example 115, 2-Methyl-4-(pyrrolidine-1-carbonyl)-2H-pyrazole-3-carboxylic acid {2-[(2-fluoro-ethyl)-methyl-amino]-[1,2,4]triazolo[1,5-a]pyridin-7-yl}-amide] | 2.29 nM |
| CCN(C)C(=O)c1cnn(C)c1C(=O)Nc1ccn2nc(-c3cccnc3)nc2c1 [Example 116, 2-Methyl-2H-pyrazole-3,4-dicarboxylic acid 4-(ethyl-methyl-amide)3-[(2-pyridin-3-yl-[1,2,4]triazolo[1,5-a]pyridin-7-yl)-amide]] | 1.11 nM |
| Cn1ncc(C(=O)N2CCOCC2)c1C(=O)Nc1ccn2nc(-c3cccc(F)n3)nc2c1 [Example 121, 2-Methyl-4-(morpholine-4-carbonyl)-2H-pyrazole-3-carboxylic acid [2-(6-fluoro-pyridin-2-yl)-[1,2,4]triazolo[1,5-a]pyridin-7-yl]-amide] | 5.06 nM |
| Cn1ncc(C(=O)N2CC3(COC3)C2)c1C(=O)Nc1ccn2nc(N3CCCC3)nc2c1 [Example 122, 2-Methyl-4-(2-oxa-6-aza-spiro[3.3]heptane-6-carbonyl)-2H-pyrazole-3-carboxylic acid (2-pyrrolidin-1-yl-[1,2,4]triazolo[1,5-a]pyridin-7-yl)-amide] | 6.21 nM |
| CN(c1nc2cc(NC(=O)c3c(C(=O)O)cnn3C)ccn2n1)C1CC1 [Example 125, 5-[2-(Cyclopropyl-methyl-amino)-[1,2,4]triazolo[1,5-a]pyridin-7-ylcarbamoyl]-1-methyl-1H-pyrazole-4-carboxylic acid] | 54 nM |
| CN(C(=O)c1cnn(C)c1C(=O)Nc1ccn2nc(N(C)C3CC3)nc2c1)C1CC1 [Example 126, 2-Methyl-2H-pyrazole-3,4-dicarboxylic acid 4-(cyclopropyl-methyl-amide)3-{[2-(cyclopropyl-methyl-amino)-[1,2,4]triazolo[1,5-a]pyridin-7-yl]-amide}] | 0.49 nM |
| CN(c1nc2cc(NC(=O)c3c(C(=O)N4CCC4)cnn3C)ccn2n1)C1CC1 [Example 127, 4-(Azetidine-1-carbonyl)-2-methyl-2H-pyrazole-3-carboxylic acid [2-(cyclopropyl-methyl-amino)-[1,2,4]triazolo[1,5-a]pyridin-7-yl]-amide] | 0.73 nM |
| CN(c1nc2cc(NC(=O)c3c(C(=O)N4CCOCC4)cnn3C)ccn2n1)C1CC1 [Example 128, 2-Methyl-4-(morpholine-4-carbonyl)-2H-pyrazole-3-carboxylic acid [2-(cyclopropyl-methyl-amino)-[1,2,4]triazolo[1,5-a]pyridine-7-yl]-amide] | 3.37 nM |
| Cn1ncc(C(=O)N2CCN3CCC2C3)c1C(=O)Nc1ccn2nc(-c3ccccc3)nc2c1 (stereo not drawn) [Example 129, 4-(1,4-Diaza-bicyclo[3.2.1]octane-4-carbonyl)-2-methyl-2H-pyrazole-3-carboxylic acid (2-phenyl-[1,2,4]triazolo[1,5-a]pyridin-7-yl)-amide] | 1.1 nM |
| Cn1ncc(C(=O)N2CCC2)c1C(=O)Nc1ccn2nc(-c3ccccc3OCCF)nc2c1 [Example 130, 4-(Azetidine-1-carbonyl)-2-methyl-2H-pyrazole-3-carboxylic acid {2-[2-(2-fluoro-ethoxy)-phenyl]-[1,2,4]triazolo[1,5-a]pyridin-7-yl}-amide] | 0.34 nM |
| Cn1ncc(C(=O)N2CCOCC2)c1C(=O)Nc1ccn2nc(-c3ccccc3OCCF)nc2c1 [Example 131, 2-Methyl-4-(morpholine-4-carbonyl)-2H-pyrazole-3-carboxylic acid {2-[2-(2-fluoro-ethoxy)-phenyl]-[1,2,4]triazolo[1,5-a]pyridin-7-yl}-amide] | 0.9 nM |
| COCCN(C)C(=O)c1cnn(C)c1C(=O)Nc1ccn2nc(-c3ccccc3OCCF)nc2c1 [Example 132, 2-Methyl-2H-pyrazole-3,4-dicarboxylic acid 3-({2-[2-(2-fluoro-ethoxy)-phenyl]-[1,2,4]triazolo[1,5-a]pyridin-7-yl}-amide) 4-[(2-methoxy-ethyl)-methyl-amide]] | 1.02 nM |
